Entries after “also recorded” stand apart in the source; their conditions may differ. Like-named read-outs stand apart in the source and are kept apart here.
Columns and labels:
[1] = test system: HEL; test: CellTiter-Glo cell viability assay, HEL; type: cell-based
Description: (§1) As TNF-α and related signaling cascades represent crucial factors for the single-agent activity of IAP-targeting compounds,[29],[38],[39],[55] the viability inhibition of sensitive cell lines was evaluated in the presence and absence of this inflammatory stimulus. […] These effects were independent of IAP baseline levels (Figure S16), which is in agreement with the previous studies of IAP antagonists.
(§2) Cells were seeded in 384-well plates with respective treatments, and plates were incubated at 37 °C for 96 h. Viability assays were performed with or without the addition of TNF-α at 1 ng/mL. The cell viability readout was measured using the CellTiter-Glo Luminescent Cell Viability Assay (Promega, Madison, USA) and measured with a Synergy LX Multi-Mode plate reader (BioTek, Vermont, USA). All conditions were normalized to the DMSO-treated control. Data represents the mean ± SD of biological triplicates.

[2] = test system: JJN3; test: CellTiter-Glo cell viability assay, JJN3; type: cell-based
Description: as §1, §2

[3] = test system: MOLM13; test: CellTiter-Glo cell viability assay, MOLM13; type: cell-based
Description: as §1, §2

[4] = test system: SUDHL4; test: CellTiter-Glo cell viability assay, SUDHL4; type: cell-based
Description: as §1, §2

[5] = test system: SUDHL6; test: CellTiter-Glo cell viability assay, SUDHL6; type: cell-based
Description: as §1, §2

[6] = test system: DB; test: CellTiter-Glo cell viability assay, DB; type: cell-based
Description: as §1, §2

[7] = test system: K562; test: CellTiter-Glo cell viability assay, K562; type: cell-based
Description: as §1, §2

[8] = test system: IAPs (cIAP1, cIAP2, XIAP); test: Immunoblotting of IAPs in MM.1S cells, overall degradation profile, time course and washout; type: cell-based; conditions: 16 h, western blot, concentration (10 nM to 1 μM)
Description: Next, we examined the persistence of IAP degradation in MM.1S cells after a single exposure to 1 μM of 9 and subsequent removal of the compound. […] The reliance on CRL2^VHL was assessed with a neddylation inhibitor MLN4924, which blocks the activity of CRLs (Figure S13A).

[9] = Log D7.4 measurement by chromatographic (fast-gradient HPLC) method; conditions: pH 7.4
Description: The system was calibrated by plotting the retention times of six different drugs (atenolol, metoprolol, labetalol, diltiazem, triphenylene, and permethrin) versus their literature-known log D7.4 in a calibration line (R^2 = 0.99). Subsequently, the mean retention times of the analytes were taken to calculate their log D7.4 values with the aid of the calibration line. At least two independent measurements of each analyte were performed.

[10] = test system: NCI-H929; test: CellTiter-Glo cell viability assay, NCI-H929; type: cell-based
Description: as §1, §2

[11] = test system: RPMI-8826; test: CellTiter-Glo cell viability assay, RPMI-8826; type: cell-based
Description: as §1, §2

[12] = target: cIAP2 (Homo sapiens, UniProt Q13489); test: Immunoblotting (western blot) quantification of cIAP2 levels in MM.1S cells; conditions: MM.1S cells
Chain of cIAP2 (Q13489 whole entry): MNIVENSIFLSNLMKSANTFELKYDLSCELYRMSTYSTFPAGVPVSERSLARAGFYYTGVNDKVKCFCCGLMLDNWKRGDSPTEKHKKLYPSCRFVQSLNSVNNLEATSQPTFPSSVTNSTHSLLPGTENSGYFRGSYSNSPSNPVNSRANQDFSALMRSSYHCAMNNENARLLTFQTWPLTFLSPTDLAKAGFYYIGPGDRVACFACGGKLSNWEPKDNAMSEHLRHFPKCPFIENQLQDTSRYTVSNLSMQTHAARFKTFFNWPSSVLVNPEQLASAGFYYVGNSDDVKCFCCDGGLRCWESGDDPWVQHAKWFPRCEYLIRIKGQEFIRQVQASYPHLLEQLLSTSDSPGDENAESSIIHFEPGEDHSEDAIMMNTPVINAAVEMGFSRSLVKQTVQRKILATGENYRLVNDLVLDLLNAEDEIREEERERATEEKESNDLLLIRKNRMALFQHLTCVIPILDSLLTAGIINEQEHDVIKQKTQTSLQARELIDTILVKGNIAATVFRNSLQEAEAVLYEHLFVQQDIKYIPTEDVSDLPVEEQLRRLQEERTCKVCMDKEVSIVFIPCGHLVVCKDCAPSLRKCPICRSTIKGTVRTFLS

[13] = target: XIAP (Homo sapiens, UniProt P98170); test: Immunoblotting (western blot) quantification of XIAP levels in MM.1S cells; conditions: MM.1S cells, 16 h, western blot, 0.1 or 1 μM
Chain of XIAP (P98170 whole entry): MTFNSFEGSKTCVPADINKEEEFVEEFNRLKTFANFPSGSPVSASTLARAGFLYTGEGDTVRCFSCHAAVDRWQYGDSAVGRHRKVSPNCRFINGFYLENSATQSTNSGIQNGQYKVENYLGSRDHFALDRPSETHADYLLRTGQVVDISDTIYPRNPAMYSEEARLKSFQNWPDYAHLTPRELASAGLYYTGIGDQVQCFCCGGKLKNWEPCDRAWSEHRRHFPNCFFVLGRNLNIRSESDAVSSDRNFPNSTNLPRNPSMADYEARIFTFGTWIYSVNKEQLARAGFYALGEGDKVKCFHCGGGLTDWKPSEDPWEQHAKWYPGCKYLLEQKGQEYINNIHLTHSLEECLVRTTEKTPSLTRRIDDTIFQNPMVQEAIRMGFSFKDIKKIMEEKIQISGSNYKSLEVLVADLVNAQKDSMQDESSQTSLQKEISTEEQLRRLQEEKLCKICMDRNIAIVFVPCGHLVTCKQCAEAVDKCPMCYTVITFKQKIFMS

[14] = Homo sapiens, JJN-3, SI csv, head prints only the cell line, no quantity or unit, values parallel Table 1/S8, read-out: JJN3
[15] = Homo sapiens, SU-DHL-4, SI csv, head prints only the cell line, no quantity or unit, values parallel Table 1/S8, read-out: SUDHL4
[16] = Homo sapiens, SI csv, head prints only the cell line, no quantity or unit, values parallel Table 1/S8, read-out: K562
[17] = Homo sapiens, SI csv, head prints only the cell line, no quantity or unit, values parallel Table 1/S8, read-out: NCI-H929
[18] = MM cell line, 96 h, TNFα-challenged, read-out: IC50 cell viability RPMI-8826
[19] = SI csv, head prints only the cell line, no quantity or unit, values parallel Table 1/S8, read-out: RPMI-8826

For `CN[C@@H](C)C(=O)N[C@H](C(=O)N1C[C@@H](Oc2cccc(OCCCCC(=O)N[C@H](C(=O)N3C[C@@H](O)C[C@H]3C(=O)NCc3ccc(-c4scnc4C)cc3)C(C)(C)C)c2)C[C@H]1C(=O)N[C@@H]1CCCc2ccccc21)C1CCCCC1` [PROTAC 11, (2S,4S)-1-((S)-2-Cyclohexyl-2-((S)-2-(methylamino)propanamido)acetyl)-4-(3-((5-(((S)-1-((2S,4S)-4-hydroxy-2-((4-(4-methylthiazol-5-yl)benzyl)carbamoyl)pyrrolidin-1-yl)-3,3-dimethyl-1-oxobutan-2-yl)amino)-5-oxopentyl)oxy)phenoxy)-N-((R)-1,2,3,4-tetrahydronaphthalen-1-yl)pyrrolidine-2-carboxamide], the IC50 ([1]; Homo sapiens, HEL, AML cell line, 96 h, TNFα-challenged, read-out: IC50 cell viability HEL) was over 10 µM, the IC50 ([2]; Homo sapiens, JJN-3, MM cell line, 96 h, TNFα-challenged, read-out: IC50 cell viability JJN3) was over 5 µM and the IC50 [2, 14] was over 10 µM. For the same compound, the IC50 ([3]; Homo sapiens, MOLM-13, AML cell line, 96 h, TNFα-challenged, read-out: IC50 cell viability MOLM13) was over 1000 nM, the IC50 ([4]; Homo sapiens, SU-DHL-4, DLBCL cell line, 96 h, TNFα-challenged, read-out: IC50 cell viability SUDHL4) was over 5 µM and the IC50 [4, 15] was over 10 µM. For the same compound, the IC50 ([5]; Homo sapiens, SU-DHL-6, DLBCL cell line, 96 h, TNFα-challenged, read-out: IC50 cell viability SUDHL6) was 170 nM, the IC50 ([6]; Homo sapiens, DB, DLBCL cell line, 96 h, TNFα-challenged, read-out: IC50 cell viability DB) was over 5000 nM and the IC50 ([7]; Homo sapiens, K562, AML cell line, 96 h, TNFα-challenged, read-out: IC50 cell viability K562) was over 5 µM. The IC50 [7, 16] was over 10 µM, the “IAP degradation profile (in words)” value [8] was “induce only cIAP1 degradation; also recorded: only induced cIAP1 degradation” and the chromatographic logD [9] was 3.3. It also gave an IC50 ([10]; Homo sapiens, NCI-H929, MM cell line, 96 h, TNFα-challenged, read-out: IC50 cell viability NCI-H929) of over 5 µM, an IC50 [10, 17] of over 10 µM and an IC50 [11, 18] of over 5 µM. It also gave an IC50 [11, 19] of over 10 µM.
Work on `CN[C@@H](C)C(=O)N[C@H](C(=O)N1C[C@@H](Oc2cccc(OCCOCCCCCCOCCCCCCNc3cccc4c3C(=O)N(C3CCC(=O)N(C)C3=O)C4=O)c2)C[C@H]1C(=O)N[C@@H]1CCCc2ccccc21)C1CCCCC1` (stereo partly drawn) [PROTAC 28, (2S,4S)-1-((S)-2-Cyclohexyl-2-((S)-2-(methylamino)propanamido)acetyl)-4-(3-(2-((6-((6-((2-(1-methyl-2,6-dioxopiperidin-3-yl)-1,3-dioxoisoindolin-4-yl)amino)hexyl)oxy)hexyl)oxy)ethoxy)phenoxy)-N-((R)-1,2,3,4-tetrahydronaphthalen-1-yl)pyrrolidine-2-carboxamide] yielded an IC50 ([1]; Homo sapiens, SI csv, head prints only the cell line, no quantity or unit, values parallel Table 1/S8, read-out: HEL) of 0.77 µM, an IC50 [2, 14] of 0.9 µM and an IC50 ([3]; Homo sapiens, MOLM-13, SI csv, head prints only the cell line, no quantity or unit, values parallel Table 1/S8, read-out: MOLM13) of 630 nM. It also gave an IC50 [4, 15] of 1 µM, an IC50 ([5]; Homo sapiens, SU-DHL-6, SI csv, head prints only the cell line, no quantity or unit, values parallel Table 1/S8, read-out: SUDHL6) of 440 nM and an IC50 ([6]; Homo sapiens, SI csv, head prints only the cell line, no quantity or unit, values parallel Table 1/S8, read-out: DB) of 570 nM. The “remaining protein cIAP2” value ([12]; 16 h, 1 μM) was 32%, the IC50 [7, 16] was 0.84 µM and the chromatographic logD [9] was 6. For the same compound, the IC50 [10, 17] was 1.99 µM, the “XIAP degradation (in words)” value [13] was “failed to degrade XIAP at 1 μM concentration; also recorded: only marginally degrades XIAP” and the IC50 [11, 19] was 1.01 µM.
VH298 [reference compound] gave an IC50 ([1]; AML cell line, 96 h, TNFα-challenged, read-out: IC50 cell viability HEL) of over 10 µM, an IC50 ([2]; MM cell line, 96 h, TNFα-challenged, read-out: IC50 cell viability JJN3) of over 10 µM and an IC50 ([3]; AML cell line, 96 h, TNFα-challenged, read-out: IC50 cell viability MOLM13) of over 10000 nM. It also gave an IC50 ([4]; DLBCL cell line, 96 h, TNFα-challenged, read-out: IC50 cell viability SUDHL4) of over 10 µM, an IC50 ([5]; DLBCL cell line, 96 h, TNFα-challenged, read-out: IC50 cell viability SUDHL6) of over 10000 nM and an IC50 ([6]; DLBCL cell line, 96 h, TNFα-challenged, read-out: IC50 cell viability DB) of over 10000 nM. For the same compound, the “%remaining protein cIAP2” value ([12]; 16 h treatment at 0.1 μM, normalized to loading control and DMSO) was 81%, the IC50 ([7]; AML cell line, 96 h, TNFα-challenged, read-out: IC50 cell viability K562) was over 10 µM and the “IAP degradation profile (in words)” value [8] was “did not affect the levels of IAPs; also recorded: has no effects on the investigated proteins”. It also gave an IC50 ([10]; MM cell line, 96 h, TNFα-challenged, read-out: IC50 cell viability NCI-H929) of over 10 µM and an IC50 [11, 18] of over 10 µM.
